Test system: BRD
Experiment: Pre-shipment mirtazapine treatment for BRD prevention at the feedlot
Assay type: in vivo, ranch heifer calves
Protocol: An initial study was performed to confirm BRD prevention at the feedlot using a pre-shipment treatment comprising mirtazapine. A total of 24 ranch heifer calves that were recently weaned (mixed breeds, approximately 350 lbs, 6 months old) were randomly assigned to two different treatment groups. One group was fed mirtazapine in a standard starter feed at 5 mg/kg/day as a pre-shipment treatment. The treatment dosage was extrapolated from feline dosing. After one week, calves were shipped from southern Missouri to Iowa. For the next […], calves were monitored for BRD which was ascribed to any animal showing respiratory signs (i.e. coughing, runny nose or eyes, labored or rapid breathing) plus a rectal temperature >104° F. BRD(+) calves were then treated with florfenicol+flunixin. Calves requiring a second treatment received ceftiofur plus tulathromycin, while the third treatment consisted of enrofloxacin, if needed. At the end of the study calves were sold as seedstock and were kept out of the food chain.
The efficacy of the mirtazapine as a pre-shipment treatment for preventing BRD was assessed by various clinical parameters, as shown in Table 1 and FIG. 1.
The % morbidity equals the % of calves that developed BRD in the first six weeks. The % mortality equals the percent of BRD(+) calves that died of the disease. The % retreats equals the % of BRD(+) calves that required >2 treatments for BRD once developed. The data are compared to Control calves that were not fed mirtazapine prior to shipping to a feedlot (“None”).

[1] = fed in starter feed at 5 mg/kg/day for one week pre-shipment, BRD(+) calves

CN1CCN2c3ncccc3Cc3ccccc3C2C1 (stereo not drawn) [Mirtazapine, 1,2,3,4,10,14b-hexahydro-2-methyl-pyrazino[2,1-a]pyrido[2,3-c] benzazepine]
% Morbidity (% of calves that developed BRD) (fed in starter feed at 5 mg/kg/day for one week pre-shipment, % of calves that developed BRD in the first six weeks): 42%
% Mortality (percent of BRD(+) calves that died of the disease) [1]: 0%
% Retreats (% of BRD(+) calves that required >2 treatments for BRD) [1]: 11%
Avg. days to onset BRD (fed in starter feed at 5 mg/kg/day for one week pre-shipment, after shipping to feedlot): 7.3 days
Avg. Rectal Temp at BRD (fed in starter feed at 5 mg/kg/day for one week pre-shipment, at clinical presentation with BRD): 104.2 degrees F.
Effect on morbidity, mortality and severity of BRD (in words) (fed to calves for one week prior to shipping, versus control calves not fed mirtazapine): reduces the morbidity, mortality, and severity

Source: patent US11419876B2, “Mirtazapine as a pre-shipping inhibitor of bovine respiratory disease” (Iowa State University Research Foundation, Inc., priority 2019, dated 2022)
